Assay results as given in patent publication US10874719B2, “Nucleotide phosphate dissipation as a treatment for vascular disorders” (THE REGENTS OF THE UNIVERSITY OF MICHIGAN, priority 2007, dated 2020).

Experiments:
cardiac allografts [1] = experiment: Heterotopic cardiac transplantation: graft survival; assay type: in vivo, mouse
Method: (§1) Completely allomismatched murine heterotopic cardiac transplantation was performed for the present study, as previously described in detail by us^13. Two groups (n=6 in each group) were used to study donor sources of CD73 (CD73^+/+ or CD73^−/− donors into B10A recipients) and another two groups (n=6 in each group) were used to study recipient sources (B10A donors into CD73^+/+ or CD73^−/− recipients). In experiments of adenosine receptor modulators, CBA/J mice were used as donors or recipients instead of B10A mice (n=4 to 6 in each group, as indicated).
Database management and statistical analysis were performed with the Statview version 5.0 software (SAS institute Inc., Cary, N.C.). All values are expressed as means±SEM. Kaplan-Meier analysis was performed to evaluate graft survival, and survival differences were compared by a log-rank test. Comparisons among groups were performed with an unpaired Student t test or one-way analysis of variance (ANOVA) where appropriate. Values of P<0.05 were considered statistically significant.
(§2) To further evaluate the CD73-mediated contribution of specific AR subtypes during allograft rejection or CAV, we performed heterotopic cardiac transplantation using AR modulators given intraperitoneally. First, we examined which AR is acutely responsible for increased vascular leakage in the murine heterotopic cardiac transplantation model. […] Based on the results of this graft permeability assay, we selected A2AR agonists (A2A, CGS21680; A2B, NECA) to establish their potential effects on cardiac allograft rejection or vasculopathy. […] The next set of experiments was designed to measure the role of the A2BAR in CAV.

tracheal allografts = experiment: Orthotopic trachea transplant model: graft luminal occlusion and CD3 positive T cell infiltration; assay type: in vivo, mouse
Text: Two well-established tracheal transplant models were used to study the effect of CD73 on the pathogenesis of allograft rejection. The first model was the previously described double lumen airway (orthotopic) transplant model for studying chronic airway rejection (Harada, et al, Am J Physiol Lung Cell Mol Physiol 293: […]-130, 2007; Minamoto, et al, J Exp Med 202: 283-294, 2005). Briefly, after anesthesia, donor mice were exsanguinated, and whole trachea was harvested by transecting below the cricoid cartilage distal to the […] bifurcation under sterile conditions. Recipient mice were similarly anesthetized, and the whole trachea was exposed. Distal (the seventh intercartilaginous space) and proximal (immediately subjacent to the cricoid cartilage area) orifices positioned on the recipient trachea were anastomosed with both ends of the tracheal graft. This air permissive model mimics lymphocytic bronchitis and allows studies focusing on inflammation. All surgeries were performed using a Leitz-Wild surgical microscope (Urban Engineering, Burbank, Calif.) under ×16 magnifications. Grafts were harvested at the indicated time points and embedded en bloc in Tissue Freezing Medium (Triangle Biomedical Sciences, Durham, N.C.) in Disposable Base Molds (Richard-Allan Scientific, Kalamazoo, Mich.) in liquid nitrogen and stored at -80° C. until the time of analysis. For the orthotopic model histochemical staining was performed for elastin (Accustain; Sigma-Aldrich) to determine graft luminal occlusion on 5-μm-thick sections. Immunostaining was also performed using, serial adjacent sections from each group, with primary antibodies directed against a pan-T-cell marker (hamster anti-mouse CD3; BD Pharmingen, San Diego, Calif.). Morphometric measurements of cross-sectional areas were performed by blindly tracing both epithelial and subepithelial areas using a computer-assisted image analysis system (AxoCamHR; Carl Zeiss Microimaging, Thornwood, N.Y.). […]-130, 2007). Quantitative analysis of T cell infiltration was performed by manually counting the number of CD3-positive cells in epithelial and subepithelial layer under high-power magnified fields. […] The doses of the adenosine-receptor agonists' were chosen according to previous studies ([…], et al, Blood 105: 4707, 4714, 2005; Hasko, et al, Faseb J 14: 2065-2074, 2000; Satoh, et al, Pancreas 24: 75-82, 2002; Satoh, Gastroenterology 119: 829-836, 2000). The adenosine receptor agonists and antagonists were obtained from Sigma Chemicals (St. Louis, Mo.).

IFN-γ and IL-2 mRNA = experiment: Tracheal allograft T-helper 1 cytokine mRNA, real time PCR; assay type: in vivo, mouse; settings: compared with vehicle; for expression of IFN-γ mRNA: wild type allograft
Text: A heterotopic model, characterized by epithelial and subepithelial lymphocyte infiltration by one was also used (Lama, et al, Am J Pathol 169: 47-60, 2006). Donor tracheas were harvested as described above. The trachea was inserted in a subcutaneous pouch created after a 3-mm incision and blunt dissection in the back of the neck. The skin pocket was closed with a size 5.0 nylon suture.
Total RNA was extracted from frozen each mouse tracheas using RNeasy Mini Protocol for Tissues (Qiagen, Valencia, Calif.) and reverse transcribed using a High Capacity cDNA Archive Kit (ABI, Foster City, Calif.), in each case according to the manufacturer's instructions. One microgram of sample RNA was transcribed to cDNA. Real-time PCR was performed on an Applied Biosystems 7000 Real-Time PCR System (ABI) data collection system, and analyses were performed using the accompanying software.
PCR fluorogenic probes for all the target genes and the endogenous reference were purchased as TaqMan® Gene Expression Assays (ABI).
A2A receptor agonist 2-p-(2-carboxyethyl) phenethylamino-5′-N-ethylcarboxamidoadenosine (CGS-21680, 2 mg/kg/day), A2A receptor antagonist 5-Amino-7-(β-phenylethyl)-2-([…])pyrazolo(4,3-e)-1,2,4-triazolo1,5-c pyrimidine (SCH-58261, 2 mg/kg/day), A3 receptor agonist [2-chloro-N^6-(3-iodobenzyl)adenosine-5′-N-methyluronamide (Cl-IBMECA 1 mg/kg/day), A3 receptor antagonist 3-Ethyl 5-benzyl 2-methyl-6-phenyl-4-phenylethynyl-1,4-(±)-dihydropyridine-3,5-dicarboxylate (MRS 1191 2 mg/kg/day) or vehicle (0.1% DMSO in PBS) was administered in a sterile 0.1-ml volume by intraperitoneal injection every 12 hours after surgery. The doses of the adenosine-receptor agonists' were chosen according to previous studies (Erdmann, et al, Blood 105: 4707, 4714, 2005; Hasko, et al, Faseb J 14: 2065-2074, 2000; Satoh, et al, Pancreas 24: 75-82, 2002; Satoh, Gastroenterology 119: 829-836, 2000). The adenosine receptor agonists and antagonists were obtained from Sigma Chemicals (St. Louis, Mo.).

[2] = test system: endothelial cell line bEnd.3 with T lymphocytes; experiment: Allomismatched simple coculture of endothelial cells and T lymphocytes; assay type: cell-based, mouse; settings: 72-h coculture with CD73−/− T-lymphocytes, addition of APCP
Text: (§3) T lymphocytes were purified from splenocytes of CD73^+/+ and CD73^−/− mice (H-2^b) using a Dynal mouse T cell negative isolation kit (Invitrogen). The BALB/c (H-2^d)-derived endothelial cell line bEnd.3 was obtained from American Type Culture Collection (Manassas, Va.).
(§4) To further elucidate the effects of CD73 on interactions between endothelial cells and T lymphocytes found in cardiac allografts, we performed an allomismatched coculture of endothelial cells (H-2^d) and lymphocytes (H-2^b; CD73^+/+ or CD73^−/−) with or without APCP in vitro. First, we evaluated the contribution of T lymphocytes to endothelial cells on the simple coculture experiments. […] Next, we evaluated the contribution of endothelial cells to T lymphocytes utilizing transmigration coculture experiments.

[3] = test system: T lymphocytes transmigrating across bEnd.3 endothelial cells; experiment: Allomismatched transmigration coculture of endothelial cells and T lymphocytes; assay type: cell-based, mouse
Text: as §3, §4

cardiac allografts [4] = experiment: Heterotopic cardiac transplantation: cardiac allograft vasculopathy, luminal occlusion of graft coronary arteries; assay type: in vivo, mouse; settings: day 30 post-transplantation, both CD73+/+ and CD73−/− donors or recipients, vs wild-type non-treatment controls
Method: as §1, with “indicated). […]” for “indicated).”
as §2

[5] = CD73−/− donors or recipients, compared with wild-type non-treatment controls
[6] = compared with non-treatment controls

## CCNC(=O)[C@H]1O[C@@H](n2cnc3c(N)nc(NCCc4ccc(CCC(=O)O)cc4)nc32)[C@H](O)[C@@H]1O [CGS-21680, 2-p-(2-carboxyethyl) phenethylamino-5′-N-ethylcarboxamidoadenosine]
Cardiac allografts [1]; [5]
  graft survival: no significant increase
Cardiac allografts [1]; [6]
  graft survival: significantly increased
Tracheal allografts; CD73−/− allografts, mean±SEM
  CD3 positive cell infiltrations: 79±28
  luminal obliteration: 36±3%
Tracheal allografts; wild type allografts, compared with vehicle
  CD3 positive cell infiltrations: less
Tracheal allografts; wild type allografts, compared with vehicle, 1 week after transplantation, i.p. every 12 hours
  graft luminal obliteration: significantly reduced
IFN-γ and IL-2 mRNA
  expression of IFN-γ mRNA: down-regulated
IFN-γ and IL-2 mRNA; wild type allografts
  expression of IL-2 mRNA: down-regulated

## Nc1ncnc2c1ncn2[C@@H]1O[C@H](COP(=O)(O)CP(=O)(O)O)[C@@H](O)[C@H]1O [APCP]
[2]
  endothelial cell TNF-α mRNA upregulation: significantly enhanced
  endothelial cell VCAM-1 mRNA upregulation: significantly enhanced
[3]; 24-h coculture of CD73−/− T-lymphocytes
  transmigration of T-lymphocytes: significantly enhanced
[3]; coculture of CD73−/− T-lymphocytes
  IFN-γ mRNA upregulation in post-transmigrated T-lymphocytes: no significant enhancement

## Nc1nc2c(cnn2CCc2ccccc2)c2nc(-c3ccco3)nn12 [SCH-58261, 5-Amino-7-(β-phenylethyl)-2-([…])pyrazolo(4,3-e)-1,2,4-triazolo1,5-c pyrimidine]
IFN-γ and IL-2 mRNA
  expression of IFN-γ mRNA: did not affect

## CCOC(=O)C1=C(C)NC(c2ccccc2)=C(C(=O)OCc2ccccc2)C1C#Cc1ccccc1 (racemic) [MRS 1191, 3-Ethyl 5-benzyl 2-methyl-6-phenyl-4-phenylethynyl-1,4-(±)-dihydropyridine-3,5-dicarboxylate]
IFN-γ and IL-2 mRNA
  expression of IFN-γ mRNA: did not affect

## CCNC(=O)[C@H]1O[C@@H](n2cnc3c(N)ncnc32)[C@H](O)[C@@H]1O [NECA]
Cardiac allografts [1]; [5]
  graft survival: significantly increased
Cardiac allografts [1]; NECA-treated vs CGS21680-treated recipients
  graft survival compared with CGS21680-treated recipients: significantly longer
Cardiac allografts [1]; [6]
  graft survival: significantly increased
Cardiac allografts [4]
  severity of luminal occlusion: significantly attenuated

## CNC(=O)[C@H]1O[C@@H](n2cnc3c(NCc4cccc(I)c4)nc(Cl)nc32)[C@H](O)[C@@H]1O [Cl-IBMECA, 2-chloro-N^6-(3-iodobenzyl)adenosine-5′-N-methyluronamide]
IFN-γ and IL-2 mRNA
  expression of IFN-γ mRNA: did not affect
